pEC50: −log10 of the molar value. Entries after “also recorded” stand apart in the source; their conditions may differ. Read-outs that look alike come from different tables or passages of the source.
Key:
α7-5HT3 = target: T1, α7-5HT3 (Homo sapiens, UniProt P36544, M226I/T225I); assay: Agonist potency (EC50), HEK cells expressing chimeric channel; format: cell-based, human α7 nAChR LBD, murine 5HT3 IPD
T1 construct: expressed in transfected cells; host or cells: HEK cells

α7^Q79G-GlyR^A298G = target: T2, α7^Q79G-GlyR^A298G (Homo sapiens, UniProt P36544, A298G/Q79G); assay: as above; format: cell-based
T2 construct: expressed in transfected cells; host or cells: HEK cells
T2 sequence (P36544 with tags, fused parts or gaps Q79G): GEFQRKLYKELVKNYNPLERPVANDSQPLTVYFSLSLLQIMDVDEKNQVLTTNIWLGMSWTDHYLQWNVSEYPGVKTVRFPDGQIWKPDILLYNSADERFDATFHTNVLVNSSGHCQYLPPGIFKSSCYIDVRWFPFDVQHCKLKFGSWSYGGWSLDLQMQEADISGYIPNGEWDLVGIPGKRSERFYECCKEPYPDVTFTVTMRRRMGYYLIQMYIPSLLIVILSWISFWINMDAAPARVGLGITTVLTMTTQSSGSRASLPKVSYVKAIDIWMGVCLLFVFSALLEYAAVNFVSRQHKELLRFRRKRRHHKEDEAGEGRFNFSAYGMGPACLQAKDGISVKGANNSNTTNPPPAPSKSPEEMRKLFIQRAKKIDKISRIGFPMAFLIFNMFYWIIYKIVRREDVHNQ

α7^Y115F,G175K-GlyR = target: T3, α7^Y115F,G175K-GlyR (Homo sapiens, UniProt P36544, G175K/Y115F); assay: Agonist potency at chimeric channel; format: cell-based; conditions: relative to α7^Y115F-GlyR
T3 construct: expressed in transfected cells
T3 sequence (P36544 with tags, fused parts or gaps Y115F/G175K): as the sequence (P36544 with tags, fused parts or gaps Q79G) above, with G57Q, Y93F, G153K, G276A counted along it

α7^Y115F-GlyR G175F = target: T4, α7^Y115F-GlyR G175F (Homo sapiens, UniProt P36544, G175F/Y115F); assay: Agonist potency at chimeric channel (Table 8); format: cell-based; conditions: relative to α7^Y115F-GlyR
T4 construct: expressed in transfected cells
T4 sequence (P36544 with tags, fused parts or gaps Y115F/G175F): as the sequence (P36544 with tags, fused parts or gaps Q79G) above, with G57Q, Y93F, G153F, G276A counted along it

α7^Y115F-GlyR G175R = target: T5, α7^Y115F-GlyR G175R (Homo sapiens, UniProt P36544, G175R/Y115F); assay: Agonist potency at chimeric channel (Table 8); format: cell-based; conditions: relative to α7^Y115F-GlyR
T5 construct: expressed in transfected cells
T5 sequence (P36544 with tags, fused parts or gaps Y115F/G175R): as the sequence (P36544 with tags, fused parts or gaps Q79G) above, with G57Q, Y93F, G153R, G276A counted along it

α7^Y115F-GlyR G175S = target: T6, α7^Y115F-GlyR G175S (Homo sapiens, UniProt P36544, G175S/Y115F); assay: Agonist potency at chimeric channel (Table 8); format: cell-based; conditions: relative to α7^Y115F-GlyR
T6 construct: expressed in transfected cells
T6 sequence (P36544 with tags, fused parts or gaps Y115F/G175S): as the sequence (P36544 with tags, fused parts or gaps Q79G) above, with G57Q, Y93F, G153S, G276A counted along it

α7^Y115F-GlyR G175V = target: T7, α7^Y115F-GlyR G175V (Homo sapiens, UniProt P36544, G175V/Y115F); assay: Agonist potency at chimeric channel (Table 8); format: cell-based; conditions: relative to α7^Y115F-GlyR
T7 construct: expressed in transfected cells
T7 sequence (P36544 with tags, fused parts or gaps Y115F/G175V): as the sequence (P36544 with tags, fused parts or gaps Q79G) above, with G57Q, Y93F, G153V, G276A counted along it

α7^L131G-5HT3 HC = assay: Agonist potency at chimeric channel (Table 9); format: cell-based, human; conditions: α7^L131G-5HT3 HC
α7^Q79S,L131G-GlyR = target: T8, α7^Q79S,L131G-GlyR (Homo sapiens, UniProt P36544, L131G/Q79S); assay: Agonist potency at chimeric channel (Table 9); format: cell-based; conditions: α7^Q79S,L131G-GlyR
T8 construct: expressed in transfected cells
T8 sequence (P36544 with tags, fused parts or gaps Q79S/L131G): as the sequence (P36544 with tags, fused parts or gaps Q79G) above, with G57S, L109G, G276A counted along it

α7^Q79S,L131G,Q139L-GlyR = target: T9, α7^Q79S,L131G,Q139L-GlyR (Homo sapiens, UniProt P36544, L131G/Q139L/Q79S); assay: cell-based; format: cell-based; conditions: α7^Q79S,L131G,Q139L-GlyR
T9 construct: expressed in transfected cells
T9 sequence (P36544 with tags, fused parts or gaps Q79S/L131G/Q139L): as the sequence (P36544 with tags, fused parts or gaps Q79G) above, with G57S, L109G, Q117L, G276A counted along it

[1] = test system: α7GlyR chimeric channels with G175K and A298G mutations; format: cell-based, human; conditions: read-out: Agonist potency
[2] = test system: mouse cortical neurons transduced with α7^Q79G-GlyR^A298G; assay: Action potential firing of transduced cortical neurons; format: cell-based; conditions: 30 nM; 40 pA current injection; restored after washout
Description: After washout (WASH) of tropisetron, neuron firing is restored.
(§1) AAVs or DNA plasmids containing nucleic acids encoding a α7^Q79G-GlyR^A298G or α7Q79G,Y115F,G175K-GlyR chimeric LGICs were transduced into mouse cortical neurons. […] Neuron activity was silenced by application of low concentration of agonist (FIG. 7 and FIG. 8C).

[3] = test system: mouse cortical neurons transduced with α7^Q79G,Y115F,G175K-GlyR; assay: as above; format: cell-based; conditions: 100 nM; current injection; restored after washout
Description: FIGS. 8A-8C show activity of agonists on chimeric LGICs with a G175K mutation. FIG. 8A) A graph of EC50s for Q79G G175K LBD mutants against known agonists normalized to the unmodified α7-GlyR chimeric channel (log scale). […] Unmod.: unmodified α7-GlyR chimeric LGIC. FIG. 8C) Action potentials of cortical neurons from a mouse brain transduced with α7^Q79G,Y115F,G175K-GlyR chimeric LGIC. […] After washout (WASH) of tropisetron, neuron firing is restored
as §1

α7-GlyR = target: T10, α7-GlyR (Homo sapiens, UniProt P36544); assay: Agonist potency (EC50), HEK cells expressing chimeric channel; format: cell-based
T10 construct: expressed in transfected cells; host or cells: HEK cells
T10 sequence (P36544 with tags, fused parts or gaps): as the sequence (P36544 with tags, fused parts or gaps Q79G) above, with G57Q, G276A counted along it

α7^G175K-GlyR = target: T11, α7^G175K-GlyR (Homo sapiens, UniProt P36544, G175K); assay: Agonist potency at chimeric channel; format: cell-based; conditions: Table 6; read-out: Potency, a7GlyR G175K
T11 construct: expressed in transfected cells
T11 sequence (P36544 with tags, fused parts or gaps G175K): as the sequence (P36544 with tags, fused parts or gaps Q79G) above, with G57Q, G153K, G276A counted along it

α7^Q79G,G175K-GlyR = target: T12, α7^Q79G,G175K-GlyR (Homo sapiens, UniProt P36544, G175K/Q79G); assay: Agonist potency at chimeric channel; format: cell-based; conditions: Table 6; read-out: Potency, a7GlyR Q79G G175K
T12 construct: expressed in transfected cells
T12 sequence (P36544 with tags, fused parts or gaps Q79G/G175K): as the sequence (P36544 with tags, fused parts or gaps Q79G) above, with G153K, G276A counted along it

α7^Q79G,Y115F,G175K-GlyR = target: T13, α7^Q79G,Y115F,G175K-GlyR (Homo sapiens, UniProt P36544, G175K/Q79G/Y115F); assay: Agonist potency at chimeric channel; format: cell-based; conditions: Table 6; read-out: Potency, a7Gly Q79G G175K Y115F
T13 construct: expressed in transfected cells
T13 sequence (P36544 with tags, fused parts or gaps Q79G/Y115F/G175K): as the sequence (P36544 with tags, fused parts or gaps Q79G) above, with Y93F, G153K, G276A counted along it

[4] = target: T14, α7GlyR Q79G G175K Y115F R27D E41R (Homo sapiens, UniProt P36544, E41R/G175K/Q79G/R27D/Y115F); assay: Agonist potency at chimeric channel; format: cell-based; conditions: Table 6; read-out: Potency, a7GlyR Q79G G175K Y115F R27D E41R
T14 construct: expressed in transfected cells
T14 sequence (P36544 with tags, fused parts or gaps R27D/E41R/Q79G/Y115F/G175K): as the sequence (P36544 with tags, fused parts or gaps Q79G) above, with R5D, E19R, Y93F, G153K, G276A counted along it

[5] = HEK cells, Table 3, read-out: α7-5HT3 EC50
[6] = HEK cells, Table 3, read-out: α7^Q79G-GlyR^A298G EC50
[7] = HEK cells, Table 3, read-out: α7-GlyR EC50
[8] = Table 6, read-out: Potency, a7-5HT3

T1 sequence (P36544 with tags, fused parts or gaps T225I/M226I): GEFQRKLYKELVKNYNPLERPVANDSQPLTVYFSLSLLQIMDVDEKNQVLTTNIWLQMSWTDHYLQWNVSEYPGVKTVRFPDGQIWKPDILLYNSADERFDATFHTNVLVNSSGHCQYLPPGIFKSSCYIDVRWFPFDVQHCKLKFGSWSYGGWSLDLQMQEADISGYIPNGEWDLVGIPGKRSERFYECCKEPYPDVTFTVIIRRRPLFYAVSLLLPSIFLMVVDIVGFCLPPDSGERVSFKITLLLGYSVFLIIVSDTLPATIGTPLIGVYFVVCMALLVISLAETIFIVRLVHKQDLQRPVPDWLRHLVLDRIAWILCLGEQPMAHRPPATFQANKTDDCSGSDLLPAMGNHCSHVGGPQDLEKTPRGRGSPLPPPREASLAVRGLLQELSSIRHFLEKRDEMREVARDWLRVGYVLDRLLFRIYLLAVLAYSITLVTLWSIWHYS

Which results are given for `O=C(NC1CN2CCC1CC2)c1ccc(C(F)(F)F)nc1` (stereo not shown) [Compound 0296]?
pEC50 (α7-5HT3; [5]): < 4.00; pEC50 (α7^Q79G-GlyR^A298G; [6]): 6.35

`CN1[C@@H]2CC[C@H]1C[C@@H](OC(=O)c1c[nH]c3ccccc13)C2` [Tropisetron] was tested. Which “potency enhancement at α7^Y115F-GlyR by additional mutation G175K” value (α7^Y115F,G175K-GlyR) did it give?
Its value is 5.6 fold.

What about the “potency enhancement at α7^Y115F-GlyR by additional mutation G175F” value (α7^Y115F-GlyR G175F) of the same compound?
Its value is 2 fold.

And the “potency enhancement at α7^Y115F-GlyR by additional mutation G175R” value (α7^Y115F-GlyR G175R)?
The value was 5.8 fold.

And the “potency enhancement at α7^Y115F-GlyR by additional mutation G175S” value (α7^Y115F-GlyR G175S)?
The value was 9.3 fold.

And the “potency enhancement at α7^Y115F-GlyR by additional mutation G175V” value (α7^Y115F-GlyR G175V)?
The value was 16.7 fold.

What about the potency enhancement (α7^L131G-5HT3 HC) of the same compound?
The potency enhancement was 2.3 fold.

What about the “improved potency over α7-GlyR” value (α7^Q79S,L131G-GlyR) of the same compound?
The value was 15 fold.

And the “improved potency over α7-GlyR” value (α7^Q79S,L131G,Q139L-GlyR)?
Its value is 3 fold.

And the pEC50 ([1]; α7GlyR Q79G A298G G175K Y115F)?
The pEC50 was 8.55.

And the pEC50 ([1]; α7GlyR Q79G G175K A298G)?
Its pEC50 is 9.22.

And the “suppression of action potential firing” value [2]?
Its value is “silenced; also recorded: potently suppressed”.

And the “suppression of action potential firing” value [3]?
The value was “silenced; also recorded: potently suppressed”.

`O=C(Nc1ccccc1)NC1CN2CCC1CC2` (stereo not shown) [Compound 0353] was tested. Which pEC50 (α7-5HT3; [5]) did it give?
The pEC50 was 6.19.

What about the pEC50 (α7-GlyR; [7]) of the same compound?
Its pEC50 is 6.57.

What about the pEC50 (α7^Q79G-GlyR^A298G; [6]) of the same compound?
The pEC50 was 8.00.

`Fc1ccc(Cl)cc1NC(=S)N[C@H]1CN2CCC1CC2` [Compound 703] was tested. Which pEC50 (α7-5HT3; [8]) did it give?
The pEC50 was less than 4.00.

`CC(=O)OCC[N+](C)(C)C` [Acetylcholine] was tested. Which “reduced ACh responsiveness” value (α7^L131G-5HT3 HC; reduction) did it give?
Its value is 5 fold.

With `CN1[C@@H]2CCC[C@H]1C[C@@H](NC(=S)c1ccc(Cl)cc1)C2` [Compound 0536] as the compound, how does the pEC50 (α7-5HT3; [5]) read?
Its pEC50 is less than 4.48.

What about the pEC50 (α7-GlyR; [7]) of the same compound?
The pEC50 was less than 4.00.

What about the pEC50 (α7^Q79G-GlyR^A298G) of the same compound?
Its pEC50 is 5.04.

What does the source list for `CN1C2CCCC1CC(NC(=O)c1nn(C)c3ccccc13)C2` (stereo not shown) [Granisetron]?
activation of α7-5HT3 (α7-5HT3): does not activate; activation of α7-GlyR (α7-GlyR): does not activate

What does the source list for `S=C(Nc1ccc(Cl)cc1)NC1CN2CCC1CC2` (stereo not shown) [Compound 0354]?
partial agonist activity, α7-5HT3 (α7-5HT3; HEK cells, Table 3): partial; pEC50 (α7-5HT3; read-out: α7-5HT3 EC50, HEK cells, Table 3): 5.85; pEC50 (α7-GlyR): 6.00; pEC50 (α7^Q79G-GlyR^A298G; [6]): 7.52

Which results are given for `O=C(O[C@H]1C[C@H]2CC[C@@H](C1)N2)c1c[nH]c2ccccc12` [Nortropisetron]?
pEC50 ([1]; α7GlyR Q79G A298G G175K Y115F): 8.08; pEC50 ([1]; α7GlyR Q79G A298G Y115F K395 K396A): 8.20

Which results are given for `O=C(NC1CN2CCC1CC2)c1c[nH]c2ccccc12` (stereo not shown) [Compound 0676]?
pEC50 (α7-5HT3; [5]): 7.52; pEC50 (α7^Q79G-GlyR^A298G; [6]): 8.70

What does the source list for `O=C(NC1CN2CCC1CC2)c1ccc(C(F)(F)F)cn1` (stereo not shown) [Compound 0295]?
pEC50 (α7-5HT3; [5]): < 4.00; pEC50 (α7-GlyR; [7]): < 4.00; pEC50 (α7^Q79G-GlyR^A298G; [6]): 5.34

What does the source list for `FC(F)(F)Oc1ccc(NC(=S)N[C@H]2CN3CCC2CC3)cc1` [Compound 684]?
pEC50 (α7-5HT3; [8]): < 4.00; pEC50 (α7^G175K-GlyR): 6.64; pEC50 (α7^Q79G,G175K-GlyR): 7.11; pEC50 (α7^Q79G,Y115F,G175K-GlyR): 6.10; pEC50 [4]: 6.40

Reference: US11124554B2, “Modified ligand-gated ion channels and methods of use” (Howard Hughes Medical Institute, priority 2016, dated 2021)
